In ChEMBL document CHEMBL5727152, “Ethyldiamine orexin receptor antagonists” (2018):
pIC50: −log10 of the molar value.

Target: T1, Orexin receptor type 2 (Homo sapiens, UniProt O43614)
T1 sequence (O43614 whole entry): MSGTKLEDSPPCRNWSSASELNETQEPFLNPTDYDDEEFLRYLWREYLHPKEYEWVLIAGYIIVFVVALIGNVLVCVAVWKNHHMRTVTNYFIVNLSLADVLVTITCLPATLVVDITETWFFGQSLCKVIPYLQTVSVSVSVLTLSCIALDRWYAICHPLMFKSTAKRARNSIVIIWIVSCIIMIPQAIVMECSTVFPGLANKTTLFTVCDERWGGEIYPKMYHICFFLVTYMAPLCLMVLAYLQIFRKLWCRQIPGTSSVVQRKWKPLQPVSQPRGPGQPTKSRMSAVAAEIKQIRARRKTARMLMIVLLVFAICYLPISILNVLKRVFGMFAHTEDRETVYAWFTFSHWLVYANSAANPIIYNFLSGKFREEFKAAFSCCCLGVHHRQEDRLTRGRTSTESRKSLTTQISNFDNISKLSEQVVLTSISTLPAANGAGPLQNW
Experiment: FLIPR Ca2+ Flux Assay: In a typical experiment the OX1 and OX2 receptor antagonistic activity of the compounds of the present invention was determined in accordance with the following experimental method. For intracellular calcium measurements, Chinese hamster ovary (CHO) cells expressing the rat orexin-1 receptor or the human orexin-2 receptor, are grown in Iscove's modified DMEM containing 2 mM L-glutamine, […], 1% hypoxanthine-thymidine supplement, 100 U/ml penicillin, 100 μg/ml streptomycin and 10% heat-inactivated fetal calf serum (FCS). The cells are seeded at 20,000 cells/well into Becton-Dickinson black 384-well clear bottom sterile plates coated with poly-D-lysine. All reagents were from GIBCO-Invitrogen Corp. The seeded plates are incubated overnight at 37° C. and 5% CO2. Ala-6,12 human orexin-A as the agonist is prepared as a 1 mM stock solution in 1% bovine serum albumin (BSA) and diluted in assay buffer (HBSS containing 20 mM HEPES, 0.1% BSA and 2.5 mM probenecid, pH7.4) for use in the assay at a final concentration of 70 pM. Test compounds are prepared as 10 mM stock solution in DMSO, then diluted in 384-well plates, first in DMSO, then assay buffer. On the day of the assay, cells are washed 3 times with 100 μl assay buffer and then incubated for 60 min (37° C., 5% CO2) in 60 μl assay buffer containing 1 μM Fluo-4AM ester, 0.02% pluronic acid, and 1% BSA. […]
Type: cell-based

**Q.** With `CN(CCN(CC(F)(F)F)C(=O)c1ccccc1-n1nccn1)c1cc(C#N)ccn1` as the compound, how does the pIC50 read?
**A.** The pIC50 was 6.95.
